Laboratory results as given in patent EP2914280B1, “SOMATOSTATIN-DOPAMINE CHIMERIC ANALOGS” (IPSEN PHARMA S.A.S., priority 2012, dated 2014).
Numbered stars: 1 amine (or outer) side, 2 acyl side, 3 side chain; on linkers, the order of the positions; unused ones are H or OH. Bridge positions count the residues as written; N and C are the ends. Square brackets hold non-standard residues; d marks the D form. Peptide text beside a SMILES is read from it. X1 = CN1C[C@H](CSCCN(CCSC[C@@H]2C[C@@H]3c4cccc5[nH]cc(c45)C[C@H]3N(C)C2)[C@H](CCCCN[*:2])C(=O)[*:1])C[C@@H]2c3cccc4[nH]cc(c34)C[C@H]21; 4Pal = N[C@@H](Cc1ccncc1)C(=O)O

Tests used:
hSSTR2 [1] = target: T1, hSSTR2 (Homo sapiens, UniProt P30874); experiment: Intracellular calcium mobilization assay (FLIPR Calcium 4), hSSTR2; format: cell-based;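 also: agonist activity measured in cells expressing hSSTR2, seeded in 384-well plates, loaded with Calcium 4 dye, read-out as rise in intracellular calcium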
T1 construct: host or cells: 'Cells expressing hSSTR2'
T1 sequence (P30874 whole entry): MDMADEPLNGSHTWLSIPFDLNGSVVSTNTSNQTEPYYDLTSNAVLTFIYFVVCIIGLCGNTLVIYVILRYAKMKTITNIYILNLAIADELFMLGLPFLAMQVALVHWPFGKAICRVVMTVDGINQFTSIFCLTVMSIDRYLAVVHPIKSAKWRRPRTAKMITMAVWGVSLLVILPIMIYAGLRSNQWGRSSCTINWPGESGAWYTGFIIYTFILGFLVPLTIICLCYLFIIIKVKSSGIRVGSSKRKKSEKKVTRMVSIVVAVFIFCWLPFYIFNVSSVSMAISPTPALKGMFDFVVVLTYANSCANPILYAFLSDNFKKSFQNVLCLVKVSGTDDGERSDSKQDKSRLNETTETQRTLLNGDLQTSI
Procedure: (§1) The ability of select compounds according to the present invention to activate hSSTR2 and hDRD2 was determined by the intracellular calcium mobilization assay using FLIPR Calcium 4 assay kit (Molecular Devices).
(§2) Cells expressing hSSTR2 or hDRD2 were plated in 384-well microplates in tissue culture media and incubated for 16-24 hours at 37°C in a humidified atmosphere with 5% CO2. Medium was replaced by loading buffer containing Hank's buffered saline, 20 mM HEPES, 2.5 mM probenecid and Calcium 4 dye, and the plates were incubated at 37°C for 60 minutes.

hDRD2 [2] = target: T2, hDRD2 (Homo sapiens, UniProt P14416); experiment: biochemical; format: binding; set-up: expressed in transfected cells; host or cells: CHO-K1, pcDNA3.1/GS, zeocin-selected clonal line; membranes
T2 sequence (P14416 whole entry): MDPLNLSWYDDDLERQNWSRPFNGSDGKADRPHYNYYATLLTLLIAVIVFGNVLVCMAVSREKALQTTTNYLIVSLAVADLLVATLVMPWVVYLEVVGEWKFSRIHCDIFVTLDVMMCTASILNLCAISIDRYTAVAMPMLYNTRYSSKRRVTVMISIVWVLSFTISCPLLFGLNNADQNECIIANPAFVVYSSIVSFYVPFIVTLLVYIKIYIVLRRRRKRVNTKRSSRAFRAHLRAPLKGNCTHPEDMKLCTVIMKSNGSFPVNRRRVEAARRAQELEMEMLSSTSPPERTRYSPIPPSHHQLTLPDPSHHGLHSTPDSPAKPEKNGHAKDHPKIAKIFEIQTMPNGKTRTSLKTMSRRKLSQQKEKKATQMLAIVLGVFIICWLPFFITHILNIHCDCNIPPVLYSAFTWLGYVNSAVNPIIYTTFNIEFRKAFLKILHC

hSSTR5 = target: T3, hSSTR5 (Homo sapiens, UniProt P35346); experiment: Somatostatin receptor radioligand binding assay (hSSTR5); details: CHO-K1 cell membranes; 0.05 nM [125I-Tyr]-[DPhe-cyclo(Cys-Tyr-DTrp-Lys-Val-Cys)-Thr-NH2]; 60 minutes at 25°C; read-out: hSSTR5 Ki (nM) ± SEM
T3 construct: expressed in transfected cells; host or cells: CHO-K1 (ATCC), pcDNA3.1, G418-selected clonal line; membranes
T3 sequence (P35346 whole entry): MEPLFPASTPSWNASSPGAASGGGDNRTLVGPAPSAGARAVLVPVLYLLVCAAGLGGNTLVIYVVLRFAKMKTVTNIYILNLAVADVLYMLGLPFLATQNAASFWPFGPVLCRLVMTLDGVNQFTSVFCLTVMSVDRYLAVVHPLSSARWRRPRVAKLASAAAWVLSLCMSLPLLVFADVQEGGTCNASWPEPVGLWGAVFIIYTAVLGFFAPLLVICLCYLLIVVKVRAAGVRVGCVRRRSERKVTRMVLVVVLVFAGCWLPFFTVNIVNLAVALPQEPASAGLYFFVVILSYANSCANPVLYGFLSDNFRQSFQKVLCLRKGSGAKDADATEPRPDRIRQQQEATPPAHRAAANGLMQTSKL
Procedure: (§3) The affinities of a test compound for the human somatostatin receptors were determined by radioligand binding assays in CHO-K1 cells stably transfected with each of the human somatostatin receptor subtypes, hSSTR1-5. […] Clonal cell lines stably expressing each of the somatostatin receptors were obtained by transfection into CHO-K1 cells (ATCC) and subsequently selected with culture media containing 0.8 mg/mL of G418 (Life Technologies).
(§4) Membranes for in vitro receptor binding assays were obtained by the following procedures. […] The supernatant containing the plasma membranes was centrifuged at 100,000 x g for 30 minutes and the pellet was resuspended in buffer containing 20 mM glycine-glycine, 1 mM MgCl2, 250 mM sucrose, pH 7.2, for storage at -80°C.
(§5) For the SSTR1, 2 and 5 assays, membranes and various concentrations of test compounds were incubated in 96-well plates for 60 minutes at 25°C with 0.05 nM [^125I-Tyr^11]-SRIF-14 (for hSSTR1; PerkinElmer Life Science), 0.05 nM [^125I-Tyr]-seglitide (for hSSTR2; PerkinElmer Life Science) or 0.05 nM [^125I-Tyr]-[DPhe-cyclo(Cys-Tyr-DTrp-Lys-Val-Cys)-Thr-NH2] (for hSSTR5; PerkinElmer Life Science) in 50 mM HEPES, 0.2% BSA, 0.1 mM MgCl2, pH 7.5.
(§6) The incubations were terminated by rapid filtration through GF/C glass microfiber filter plates (pre-wet with 0.3% polyethyleneimine and 0.1 % BSA) using a 96-well cell harvester (Brandel). Plates were washed six times with 1 mL/well aliquots of ice-cold buffer containing 50 mM Tris buffer, pH 7.7. Specific binding was defined as the total radioligand bound minus the bound in the presence of 1000 nM SRIF-14.

hSSTR1 = target: T4, hSSTR1 (Homo sapiens, UniProt P30872); experiment: Somatostatin receptor radioligand binding assay (hSSTR1)
T4 construct: expressed in transfected cells; host or cells: CHO-K1 (ATCC), pcDNA3.1, G418-selected clonal line; membranes
T4 sequence (P30872 whole entry): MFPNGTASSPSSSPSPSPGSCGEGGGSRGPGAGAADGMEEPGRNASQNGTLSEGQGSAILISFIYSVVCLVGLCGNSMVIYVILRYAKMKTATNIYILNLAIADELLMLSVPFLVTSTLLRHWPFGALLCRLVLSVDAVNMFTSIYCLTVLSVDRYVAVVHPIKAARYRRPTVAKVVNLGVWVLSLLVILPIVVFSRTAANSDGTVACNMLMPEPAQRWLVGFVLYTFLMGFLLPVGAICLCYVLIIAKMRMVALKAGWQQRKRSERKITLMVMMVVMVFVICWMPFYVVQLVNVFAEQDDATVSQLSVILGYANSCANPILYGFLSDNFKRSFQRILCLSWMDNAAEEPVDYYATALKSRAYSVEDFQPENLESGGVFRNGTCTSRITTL
Procedure: as §3, §4, §5, §6

hSSTR2 [3] = target: T1, hSSTR2; experiment: Somatostatin receptor radioligand binding assay (hSSTR2);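 also: radioligand displacement on membranes of CHO-K1 cells stably transfected with human SSTR2, specific binding taken as total minus binding left with 1000 nM SRIF-14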
Procedure: as §3, §4, §5, §6

hDRD2 [4] = target: T2, hDRD2; experiment: cell-based; set-up: host or cells: 'Cells expressing hDRD2'; details: for Emax: read-out: hDRD2 %Emax ± SEM
Procedure: as §1, §2
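For Emax in this document: agonist activity at human DRD2 in DRD2-expressing cells, read as intracellular calcium mobilization with a FLIPR Calcium 4 fluorescent dye.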

## C[C@@H](O)[C@@H]1NC(=O)[C@H](CCCCN)NC(=O)[C@@H](Cc2c[nH]c3ccccc23)NC(=O)[C@H](Cc2ccncc2)NC(=O)[C@H](Cc2ccccc2)NC(=O)[C@H](CCCNC(=N)N)NC(=O)[C@H](N(CCSC[C@@H]2C[C@@H]3c4cccc5[nH]cc(c45)C[C@H]3N(C)C2)CCSC[C@@H]2C[C@@H]3c4cccc5[nH]cc(c45)C[C@H]3N(C)C2)CCCCNC(=O)[C@H](Cc2ccccc2)NC1=O [Compound 29, bis[Dop1-psi(CH2N)]-cyclo(DLys-Arg-Phe-4Pal-DTrp-Lys-Thr-Phe)] (RF[4Pal][dW]KTF; linker N-C via X1)
hSSTR2 [1]
  EC50: 12.1 ± 0.7 nM
hSSTR2 [1]; p value (Student's t-test, one-tailed) < 0.05, receptor not named
  improvement in EC50 over Reference Compound A: statistically significant improvement in EC50
hDRD2 [2]
  Ki: 135 ± 66.1 nM
hSSTR5
  Ki: 2.37 nM
hSSTR1
  Ki: 26.7 nM
hSSTR2 [3]
  Ki: 0.14 ± 0.02 nM
hDRD2 [4]
  EC50: 254 ± 111 nM
  Emax: 89 ± 4.5%

## C[C@@H](O)[C@@H]1NC(=O)[C@H](CCCCN)NC(=O)[C@@H](Cc2c[nH]c3ccccc23)NC(=O)[C@H](Cc2ccccc2)NC(=O)[C@H](Cc2ccccc2)NC(=O)[C@H](CCCNC(=N)N)NC(=O)[C@H](NC[C@H](Cc2ccc(O)cc2)NC(=O)CSC[C@@H]2C[C@@H]3c4cccc5[nH]cc(c45)C[C@H]3N(C)C2)CCCCNC(=O)[C@H](Cc2ccccc2)NC1=O [Compound 32, Dop1-Tyr-psi(CH2NH)-cyclo(DLys-Arg-Phe-Phe-DTrp-Lys-Thr-Phe)]
hSSTR2 [1]
  EC50: 13.6 ± 3.4 nM
hSSTR2 [1]; receptor not named
  improvement in EC50 and/or %Emax over Reference Compound B: statistically significant improvement in EC50 and/or %Emax
hDRD2 [2]
  Ki: 44 ± 1 nM
hSSTR5
  Ki: 1.58 nM
hSSTR1
  Ki: 5.3 ± 2.9 nM
hSSTR2 [3]
  Ki: 0.28 ± 0.07 nM
hDRD2 [4]
  EC50: 35.6 ± 2.4 nM
  Emax: 102 ± 12.8%

## C[C@@H](O)[C@@H]1NC(=O)[C@H](CCCCN)NC(=O)[C@@H](Cc2c[nH]c3ccccc23)NC(=O)[C@H](Cc2ccccc2)NC(=O)[C@H](Cc2ccccc2)NC(=O)[C@H](CCCNC(=N)N)NC(=O)[C@H](NC[C@H](Cc2ccc(O)cc2)NC(=O)CSC[C@@H]2C[C@@H]3c4cccc5[nH]cc(c45)C[C@H]3N(C)C2)CCCCNC(=O)[C@H](Cc2ccc(O)cc2)NC1=O [Compound 33, Dop1-Tyr-psi(CH2NH)-cyclo(DLys-Arg-Phe-Phe-DTrp-Lys-Thr-Tyr)]
hSSTR2 [1]
  EC50: 13.8 ± 5 nM
hSSTR2 [1]; receptor not named
  improvement in EC50 and/or %Emax over Reference Compound B: statistically significant improvement in EC50 and/or %Emax
hDRD2 [2]
  Ki: 15 ± 2.6 nM
hSSTR5
  Ki: 0.82 ± 0.4 nM
hSSTR1
  Ki: 10.4 ± 3.2 nM
hSSTR2 [3]
  Ki: 0.24 ± 0.1 nM
hDRD2 [4]
  EC50: 51.8 ± 20.6 nM
  Emax: 102 ± 12.5%
